This is an account of results in US4152436A, “Acylated pentadienone hydrazone, method for preparing the same, and use as fire ant control agents” (American Cyanamid Company, priority 1978, dated 1979).

Type in all cases: in vivo
Assay [1] relates to Tobacco Budworm [Heliothis virescens (Fabricius)]. Put plainly: Insecticide test, tobacco budworm 1st instar (eggs / newly hatched larvae on dipped cotton leaf). The conditions noted are these: 72 h, read-out: % kill, Tobacco Budworm 1st Instar. The method, then: Tobacco Budworm [Heliothis virescens (Fabricius)]
A cotton plant with 2 true leaves expanded is dipped for 3 seconds with agitation in a 300 ppm solution. A 1.25 to 2 cm square of cheesecloth with about 50 to 100 budworm eggs 0-24 hours old is also dipped in the test solution and placed on one leaf to dry. The leaf with the treated budworm eggs is removed from the plant and placed in a 236.6 ml (8-oz) Dixie cup with a wet 5 cm piece of dental wick and covered with a lid. The other leaf is placed in a similar cup with a wick and a piece of cheesecloth infested with 50-100 newly hatched larvae is added before covering the cup with a lid. After 3 days at 26.7° C., observations of egg hatch are made as well as kill of newly hatched larvae, any inhibition of feeding, or interference of any sort with normal development.
(§1) Compounds rated active (8 or 9) are further tested at reduced concentrations in 50% acetone:50% water.

The test system is the same in assay [2]. Nature of the assay: whole plant or invertebrate. The conditions noted are these: 72 h, read-out: % kill, Tobacco Budworm 3rd Instar. As to the method:
Third Instar Three cotton plants with just expanded cotyledons are dipped in a 1000 ppm solution, and placed in a hood to dry. When dry, each cotyledon is cut in half and each half is placed in one of ten 29.6 ml plastic medicine cups containing a 1.25 cm dental wick saturated with water, and one third instar budworm larva is added. The cup is capped and held for 3 days at 26.7° C., after which mortality counts are made. Compounds rated active (8 or 9) are further tested at reduced concentrations in 50% acetone:50% water.

Assay [3] concerns Cabbage Looper [Trichoplusia ni (Hubner)]. Nature of the assay: Insecticide test, cabbage looper 3rd instar. The conditions noted are these: 48 h, 2 days, 26.7° C., read-out: % kill, Cabbage Looper 3rd Instar. As to the method: Cabbage Looper [Trichoplusia ni (Hubner)]
A primary leaf of a cotton plant is dipped in the test solution and agitated for 3 seconds. It is then set in a hood to dry. Following this, the leaf is placed in a 10 cm petri dish containing a moist filter paper at the bottom and 10 third-instar loopers. The dish is covered and held at 26.7° C. After 2 days, mortality counts and estimates of feeding damage are recorded. Those materials showing partial kill and/or inhibition of feeding are held for another day for further observations.
as §1

Assay [4] has as its system Southern Armyworm [Spodoptera eridania (Cramer)]. Put plainly: whole plant or invertebrate. The conditions noted are these: for mortality at 10 ppm / mortality at 100 ppm / mortality at 1000 ppm: 48 h, read-out: % kill, Southern Armyworm 3rd Instar; for pest or weed control at 1000 µg/mL: 168 h, second leaf, 7 days from original treatment, read-out: % kill, Southern Armyworm 3rd Instar, 7 days (residual activity). As to the method:
Southern Armyworm [Spodoptera eridania ([…] bean plant with just the primary leaves expanded to 7.6 to 10 cm is dipped for 3 seconds with agitation in a 1000 ppm solution and set in a hood to dry. […] The dish is covered and held at 26.7° C. After 2 days mortality counts and estimates of the amount of feeding are made. Compounds showing partial kill and/or inhibition of feeding are held for an extra day for further observations. All compounds showing activity as defined above are retested, using the second leaf on the bean plant, after an interval of 7 days from original treatment, as an assay of residual activity. Compounds rated active (8 or 9) are further tested at reduced concentrations in 50% acetone:50% water.

For `CC(=O)N1CC(C)(C)CN=C1NN=C(C=Cc1ccc(C(F)(F)F)cc1)C=Cc1ccc(C(F)(F)F)cc1` [R1=CF3, R3=CH3, 1,5-bis(α,α,α-Trifluoro-p-tolyl)-1,4-pentadien-3-one, (1-acetyl-1,4,5,6-tetrahydro-5,5-dimethyl-2-pyrimidinyl)hydrazone], in assay [1], the mortality at 100 ppm lay in the range of 0 to 40% and the mortality at 300 ppm was in the range of 86 to 95%. In assay [2], the mortality at 10 ppm was 40%, the mortality at 100 ppm stood at 100% and the mortality at 1000 ppm came out at 100%. Besides, in assay [3], the mortality at 10 ppm is 41 to 60%, the mortality at 100 ppm fell in the range of 86 to 95% and the mortality at 1000 ppm was 100%. In assay [4], the mortality at 10 ppm amounted to 0%, the mortality at 100 ppm was 100%, the mortality at 1000 ppm is 100% and the pest or weed control at 1000 µg/mL stood at 100%.

On to `CCCCCCCCCCCCCCCC(=O)N1CC(C)(C)CN=C1NN=C(C=Cc1ccc(Cl)cc1)C=Cc1ccc(Cl)cc1` [R1=Cl, R3=n-C15 H31], for which, in assay [2], the mortality at 100 ppm was found to be 0% and the mortality at 1000 ppm worked out at 100%. For the same compound, in assay [3], the mortality at 100 ppm was 0% and the mortality at 1000 ppm came to 100%. In assay [4], the mortality at 100 ppm is 0%, the mortality at 1000 ppm was 100% and the pest or weed control at 1000 µg/mL stood at 100%.

`CC1(C)CN=C(NN=C(C=Cc2ccc(C(F)(F)F)cc2)C=Cc2ccc(C(F)(F)F)cc2)N(C(=O)C=Cc2ccccc2)C1`: in assay [1], the mortality at 300 ppm was 0%. Moreover, the mortality at 1000 ppm in assay [4] was 0%.

Take `CC(C)=CC(=O)N1CC(C)(C)CN=C1NN=C(C=Cc1ccc(C(F)(F)F)cc1)C=Cc1ccc(C(F)(F)F)cc1` [R1=CF3, R3=(CH3)2 CCH]: the mortality at 100 ppm in assay [2] is 0%; in assay [3], 10%; in assay [4] it was 0%. Besides, the mortality at 1000 ppm in assay [2], in assay [3] and in assay [4] was 100% in each case. In assay [4], the pest or weed control at 1000 µg/mL worked out at 0%.

On to `CC(C)C(=O)N1CC(C)(C)CN=C1NN=C(C=Cc1ccc(C(F)(F)F)cc1)C=Cc1ccc(C(F)(F)F)cc1` [R1=CF3, R3=(CH3)2 CH], for which, in assay [1], the mortality at 300 ppm is 86 to 95%. In addition, in assay [2], the mortality at 10 ppm was found to be 0%, the mortality at 100 ppm worked out at 50% and the mortality at 1000 ppm was determined as 100%. In addition, in assay [3], the mortality at 10 ppm was found to be 0%, the mortality at 100 ppm worked out at 100% and the mortality at 1000 ppm is 100%. In addition, in assay [4], the mortality at 10 ppm was determined as 0%, the mortality at 100 ppm worked out at 100% and the mortality at 1000 ppm came out at 100%.

As to `CCCCCCCCCCCCCCCC(=O)N1CCCCN=C1NN=C(C=Cc1ccc(C(F)(F)F)cc1)C=Cc1ccc(C(F)(F)F)cc1`, in assay [1], the mortality at 300 ppm lay within 0 to 40%.

For the compound `CCCCCCCC(=O)N1CC(C)(C)CN=C1NN=C(C=Cc1ccc(C(F)(F)F)cc1)C=Cc1ccc(C(F)(F)F)cc1` [R1=CF3, R3=n-C7 H15], in assay [2], the mortality at 100 ppm was found to be 0% and the mortality at 1000 ppm stood at 100%. Besides, in assay [3], the mortality at 100 ppm came out at 90% and the mortality at 1000 ppm is 100%. Also, in assay [4], the mortality at 10 ppm was found to be 0%, the mortality at 100 ppm was 90% and the mortality at 1000 ppm amounted to 100%.

For the compound `O=C(c1ccccc1)N1CCCCN=C1NN=C(C=Cc1ccc(C(F)(F)F)cc1)C=Cc1ccc(C(F)(F)F)cc1`, in assay [1], the mortality at 300 ppm lay within 0 to 40%.

In the case of `CCCCC(CC)C(=O)N1CC(C)(C)CN=C1NN=C(C=Cc1ccc(C(F)(F)F)cc1)C=Cc1ccc(C(F)(F)F)cc1` (stereo not drawn), in assay [1], the mortality at 300 ppm is 0%. For the same compound, the mortality at 100 ppm amounted to 40% in assay [2], 90% in assay [3] and 100% in assay [4]. For the same compound, the mortality at 1000 ppm in assay [2], in assay [3] and in assay [4] was 100% throughout. Also, the mortality at 10 ppm in assay [3] turned out to be 80%; in assay [4], 0%.

With `CC1(C)CN=C(NN=C(C=Cc2ccc(C(F)(F)F)cc2)C=Cc2ccc(C(F)(F)F)cc2)N(C(=O)c2ccccc2)C1` [drawing 35], the mortality at 100 ppm in assay [1] lay within 0 to 40%. In addition, in assay [2], the mortality at 10 ppm was determined as 0%, the mortality at 100 ppm was found to be 100% and the mortality at 1000 ppm stood at 100%. Also, in assay [3], the mortality at 10 ppm came out at 0%, the mortality at 100 ppm is 100% and the mortality at 1000 ppm turned out to be 100%. In assay [4], the mortality at 10 ppm is 0%, the mortality at 100 ppm came to 100%, the mortality at 1000 ppm turned out to be 100% and the pest or weed control at 1000 µg/mL was determined as 100%.

As for `CCCCCCCCCC(=O)N1CC(C)(C)CN=C1NN=C(C=Cc1ccc(C(F)(F)F)cc1)C=Cc1ccc(C(F)(F)F)cc1` [R1=CF3, R3=n-C9 H19], the mortality at 10 ppm in assay [2] and in assay [3] was 0% throughout. Moreover, the mortality at 100 ppm in assay [2] came out at 100%; in assay [3] it was 60%; in assay [4], 0%. Besides, the mortality at 1000 ppm in assay [2], in assay [3] and in assay [4] was 100% throughout.

Regarding `CCCCCCCC(=O)N1CCCCN=C1NN=C(C=Cc1ccc(C(F)(F)F)cc1)C=Cc1ccc(C(F)(F)F)cc1`, in assay [1], the mortality at 300 ppm lay within 0 to 40%.

For `CCCCCC(=O)N1CC(C)(C)CN=C1NN=C(C=Cc1ccc(C(F)(F)F)cc1)C=Cc1ccc(C(F)(F)F)cc1` [R1=CF3, R3=n-C5 H11], in assay [2], the mortality at 10 ppm was 0%, the mortality at 100 ppm is 70% and the mortality at 1000 ppm came to 100%. Further, in assay [3], the mortality at 10 ppm was 0%, the mortality at 100 ppm was 50% and the mortality at 1000 ppm was found to be 100%. For the same compound, in assay [4], the mortality at 10 ppm came out at 0%, the mortality at 100 ppm came out at 100% and the mortality at 1000 ppm amounted to 100%.

With `CCCCCCCCCCCC(=O)N1CC(C)(C)CN=C1NN=C(C=Cc1ccc(C(F)(F)F)cc1)C=Cc1ccc(C(F)(F)F)cc1` [R1=CF3, R3=n-C11 H23], in assay [2], the mortality at 10 ppm was 0%, the mortality at 100 ppm came to 70% and the mortality at 1000 ppm was 100%. Moreover, in assay [3], the mortality at 10 ppm was 0%, the mortality at 100 ppm came to 70% and the mortality at 1000 ppm was determined as 100%. Also, in assay [4], the mortality at 10 ppm was 0%, the mortality at 100 ppm turned out to be 100% and the mortality at 1000 ppm came to 100%.

For the compound `CCCCCCCCCCCCCC(=O)N1CC(C)(C)CN=C1NN=C(C=Cc1ccc(C(F)(F)F)cc1)C=Cc1ccc(C(F)(F)F)cc1` [R1=CF3, R3=n-C13 H27], in assay [2], the mortality at 10 ppm was 0%, the mortality at 100 ppm turned out to be 90% and the mortality at 1000 ppm was 100%. In assay [3], the mortality at 10 ppm was found to be 0%, the mortality at 100 ppm amounted to 60% and the mortality at 1000 ppm was determined as 100%. For the same compound, in assay [4], the mortality at 100 ppm came to 0% and the mortality at 1000 ppm worked out at 100%.

For the compound `CC(=O)N1CC(C)(C)CN=C1N(N=C(C=Cc1ccc(C(F)(F)F)cc1)C=Cc1ccc(C(F)(F)F)cc1)C(C)=O`, in assay [2], the mortality at 100 ppm came out at 0% and the mortality at 1000 ppm was 100%. Also, in assay [3], the mortality at 10 ppm is 41 to 60%, the mortality at 100 ppm is 86 to 95% and the mortality at 1000 ppm amounted to 100%. In addition, in assay [4], the mortality at 10 ppm came out at 0%, the mortality at 100 ppm amounted to 100%, the mortality at 1000 ppm worked out at 100% and the pest or weed control at 1000 µg/mL is 0%.
